The values below come from article PMC11012289, “The Discovery of New Inhibitors of Insulin-Regulated Aminopeptidase by a High-Throughput Screening of 400,000 Drug-like Compounds” (International Journal of Molecular Sciences, 2024).

In test [1] the target is T1, IRAP (Homo sapiens, UniProt Q9UIQ6).
T1 construct: The screen was performed with the soluble truncated IRAP enzyme; made in house
The test is described as follows: Orthogonal absorbance IRAP assay (L-Leucine para-nitroanilide cleavage). The note with it: 1 mM L-Leucine p-Nitroanilide, 120 min RT; for IC50: read-out: Absorbance pIC50 (converted). The format is biochemical. An outline of the steps:
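Absorbance assay: IRAP protein at 2.5 × 10^−4 mg/mL final with 1 mM L-leucine para-nitroanilide in buffer containing 0.05% BSA; 120 min at RT in the dark. para-Nitroaniline read at 405 nm. Dose–response spanned 20 μM–27.4 nM compound, 1% DMSO.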

Test [2] concerns the target T1, IRAP. The test is described as follows: Thermal shift (TSA) IRAP assay. The format is binding. The note with it: screening hits at 30 µM, 1% DMSO.
The target of test [3] is T1, IRAP. Briefly: Deselection fluorescence IRAP assay with 10 µM zinc. The format is biochemical. The note with it: 10 µM ZnSO4 in assay buffer; for IC50: read-out: Fluorescence + Zn pIC50 (converted).
In test [4] the target is T1, IRAP. The test is described as follows: Primary fluorescence IRAP assay (L-Leucine-7-amido-4-methylcoumarin cleavage). The format is biochemical. The note with it: for IC50 / Fluorescence pIC50: 37.5 µM L-Leucine-7-amido-4-methylcoumarin, 60 min RT, dose-response 20 µM-27.4 nM; for IC50: read-out: Fluorescence IC50; for LipE: calculated from (pIC50Fluorescence − LogD).

Details of test [5]: method as in ELF screening history. The note with it: ref ELF screening history, cited from earlier work; for Enzyme Active: number of ELF enzyme screens in which the compound was active; for Targets active: number of ELF screens in which the compound was active; for Enzyme Active %: share of ELF enzyme targets screened; for Targets Active %: share of all ELF targets screened.

T1 sequence (Q9UIQ6 155-1025 limits assumed): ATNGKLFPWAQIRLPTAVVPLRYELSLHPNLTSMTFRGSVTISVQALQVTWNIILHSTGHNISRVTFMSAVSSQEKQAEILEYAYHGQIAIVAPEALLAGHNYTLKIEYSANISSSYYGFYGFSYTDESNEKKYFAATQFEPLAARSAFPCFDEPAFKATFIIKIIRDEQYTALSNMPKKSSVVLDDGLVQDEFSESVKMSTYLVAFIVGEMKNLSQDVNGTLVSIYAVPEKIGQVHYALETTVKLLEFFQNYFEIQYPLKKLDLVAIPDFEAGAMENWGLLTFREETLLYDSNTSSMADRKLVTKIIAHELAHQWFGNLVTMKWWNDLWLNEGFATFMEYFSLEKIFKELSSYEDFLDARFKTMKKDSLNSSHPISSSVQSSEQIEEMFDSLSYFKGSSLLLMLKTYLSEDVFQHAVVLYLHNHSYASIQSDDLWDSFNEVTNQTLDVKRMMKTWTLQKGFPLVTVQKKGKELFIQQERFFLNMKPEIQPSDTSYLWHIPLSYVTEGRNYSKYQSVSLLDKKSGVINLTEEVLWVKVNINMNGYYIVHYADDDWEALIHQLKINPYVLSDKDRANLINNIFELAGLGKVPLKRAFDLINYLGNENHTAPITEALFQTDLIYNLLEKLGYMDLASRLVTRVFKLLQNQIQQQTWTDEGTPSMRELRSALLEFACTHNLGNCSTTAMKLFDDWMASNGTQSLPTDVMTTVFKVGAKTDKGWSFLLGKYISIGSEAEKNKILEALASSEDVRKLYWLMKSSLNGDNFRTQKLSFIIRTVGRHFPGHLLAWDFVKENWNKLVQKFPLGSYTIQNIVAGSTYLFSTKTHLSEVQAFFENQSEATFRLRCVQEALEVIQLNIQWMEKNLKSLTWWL

With `CSc1[nH]c(-c2ccccc2)nc1S(=O)(=O)c1ccccc1` [QHL28], the IC50 in test [1] was 15.5 µM. The ΔTm at 30 µM in test [2] turned out to be 0.15 °C. Besides, the IC50 in test [3] is 5.62 µM. Also, in test [4], the IC50 worked out at 3.24 µM and the LipE is 1.54. In test [5], the “Enzyme Active” value was 4, the Targets active is 6, the “Enzyme Active %” value was 4.3% and the “Targets Active %” value is listed as 4.0%.

As to `O=C(Cc1cc(N2CCCCCC2)nc(-c2ccc(Cl)cc2)n1)NO` [QHL29], the IC50 in test [1] is 2.95 µM. Besides, the ΔTm at 30 µM in test [2] is 1.92 °C. Besides, the IC50 in test [3] is 3.24 µM. Also, in test [4], the IC50 amounted to 3.31 µM and the LipE is recorded as 1.60. In addition, in test [5], the “Enzyme Active” value is listed as 10, the Targets active was 14, the “Enzyme Active %” value was 11.8% and the “Targets Active %” value is on record as 10.2%.

In the case of `Fc1ccc(F)c(Cn2ccc3ncccc32)c1Cl` [QHL31], the “Absorbance pIC50” value in test [1] is on record as under 4.70. Further, the ΔTm at 30 µM in test [2] is 0 °C. Moreover, the “Fluorescence + Zn pIC50” value in test [3] is 5.38. Also, in test [4], the “Fluorescence pIC50” value stood at 5.46, the IC50 was determined as 3.47 µM and the LipE is on record as 1.05. Moreover, in test [5], the “Enzyme Active” value was 5, the Targets active was 8, the “Enzyme Active %” value is recorded as 5.3% and the “Targets Active %” value was 5.3%.

`CCCNc1nc(N(C)C)nc2cc(OC)c(OC)cc12` [QHL32]: the IC50 in test [1] is over 20 µM. Also, the ΔTm at 30 µM in test [2] worked out at 0.15 °C. Moreover, in test [3], the IC50 was 6.17 µM. In test [4], the IC50 stood at 3.47 µM and the LipE is on record as 3.10. Further, in test [5], the “Enzyme Active” value is 1, the Targets active is listed as 2, the “Enzyme Active %” value is recorded as 2.4% and the “Targets Active %” value is on record as 2.6%.

For the compound `COc1cc2c(cc1-c1cnco1)C(=O)N(C)C(C)(C=Cc1ccncc1)N2` (stereo not drawn) [QHL33], the “Absorbance pIC50” value in test [1] turned out to be 5.510. The “TSA (∆°C), thermal shift of IRAP” value in test [2] is 0.74 °C. Moreover, the “Fluorescence + Zn pIC50” value in test [3] was found to be 5.42. Besides, in test [4], the “Fluorescence pIC50” value was 5.43, the IC50 was 3.72 µM and the LipE is 3.82. Moreover, in test [5], the “Enzyme Active” value is 4, the Targets active is 5, the “Enzyme Active %” value was 4.3% and the “Targets Active %” value is recorded as 3.4%.

On to `Nc1nc2cc(C(=O)O)ccc2n1Cc1cc(F)cc(F)c1` [QHL34], for which the “Absorbance pIC50” value in test [1] is on record as under 4.70. In test [2], the “TSA (∆°C), thermal shift of IRAP” value is 0.3 °C. The “Fluorescence + Zn pIC50” value in test [3] came out at 5.39. In addition, in test [4], the “Fluorescence pIC50” value is listed as 5.41, the IC50 was determined as 3.89 µM and the LipE is 3.88. In addition, in test [5], the “Enzyme Active” value is given as 1, the Targets active is on record as 2, the “Enzyme Active %” value was 1.3% and the “Targets Active %” value was 1.4%.

As for `COc1cc(CN2C(Cc3ccc(S(C)(=O)=O)cc3)CCC2c2cccnc2)cc(OC)c1` (stereo not drawn) [QHL35], the “Absorbance pIC50” value in test [1] was 4.85. Besides, in test [2], the “TSA (∆°C), thermal shift of IRAP” value amounted to 0 °C. Moreover, the “Fluorescence + Zn pIC50” value in test [3] was determined as 5.34. In test [4], the “Fluorescence pIC50” value worked out at 5.40, the IC50 turned out to be 3.98 µM and the LipE is reported as 1.15. Also, in test [5], the “Enzyme Active” value was 6, the Targets active is listed as 8, the “Enzyme Active %” value was 6.8% and the “Targets Active %” value was 5.5%.

On to `O=C(N1CCCC1)C1(CNS(=O)(=O)c2cccc3ccccc23)CC12CCCCC2` (stereo not drawn) [QHL37], for which the “Absorbance pIC50” value in test [1] is recorded as under 4.70. The “TSA (∆°C), thermal shift of IRAP” value in test [2] came out at 0.15 °C. Moreover, the “Fluorescence + Zn pIC50” value in test [3] was found to be 5.36. For the same compound, in test [4], the “Fluorescence pIC50” value is 5.36, the IC50 turned out to be 4.37 µM and the LipE is 1.74. Also, in test [5], the “Enzyme Active” value was 5, the Targets active was 7, the “Enzyme Active %” value is given as 12.2% and the “Targets Active %” value is recorded as 9.3%.

Take `NCC[C@H]1CCCCN1C(=O)Cn1nc(-c2ccc(Cl)nc2)c2c1CCCC2` [QHL38]: in test [1], the IC50 is 11 µM. Besides, the ΔTm at 30 µM in test [2] came to 2.22 °C. Further, the IC50 in test [3] is 4.57 µM. In test [4], the IC50 amounted to 4.68 µM and the LipE is listed as 3.06. In test [5], the “Enzyme Active” value is recorded as 5, the Targets active was 9, the “Enzyme Active %” value is listed as 6.3% and the “Targets Active %” value is on record as 6.5%.

Regarding `CCOC(=O)c1c(Cl)cc(C)nc1N1CCCC(Cc2ccc(C(=O)N(C)C)cc2)C1` (stereo not drawn) [QHL39], the “Absorbance pIC50” value in test [1] is reported as 5.12. Further, the “TSA (∆°C), thermal shift of IRAP” value in test [2] came out at 0 °C. The “Fluorescence + Zn pIC50” value in test [3] came out at 5.33. Besides, in test [4], the “Fluorescence pIC50” value came to 5.33, the IC50 was determined as 4.68 µM and the LipE is 0.66. In test [5], the “Enzyme Active” value is listed as 6, the Targets active is recorded as 7, the “Enzyme Active %” value was 7.1% and the “Targets Active %” value is recorded as 4.9%.

For `O=C1CN(c2cc(=O)n3ccn(Cc4ccc(F)cc4Cl)c3n2)CCN1` [QHL40], the IC50 in test [1] was over 20 µM. The ΔTm at 30 µM in test [2] worked out at 0.3 °C. Besides, the IC50 in test [3] is 5.25 µM. For the same compound, in test [4], the IC50 was 4.68 µM and the LipE is 4.38. Besides, in test [5], the “Enzyme Active” value is 4, the Targets active is 6, the “Enzyme Active %” value was 4.3% and the “Targets Active %” value is listed as 4.2%.

For `CCCCc1nc2ccn(Cc3cccc(C#N)c3)c(=O)c2n1Cc1cccc(C#N)c1` [QHL41], the “Absorbance pIC50” value in test [1] worked out at 5.81. The “TSA (∆°C), thermal shift of IRAP” value in test [2] is 0.44 °C. The “Fluorescence + Zn pIC50” value in test [3] worked out at 5.11. In test [4], the “Fluorescence pIC50” value is listed as 5.33, the IC50 came to 4.68 µM and the LipE is reported as 0.59. In addition, in test [5], the “Enzyme Active” value is recorded as 6, the Targets active is reported as 8, the “Enzyme Active %” value is recorded as 7.6% and the “Targets Active %” value is 5.5%.

Consider `NC(=O)CCc1ccc2c(c1)nc(N)n2Cc1ccc(-c2ccccc2)cc1` [QHL42], for which the “Absorbance pIC50” value in test [1] turned out to be 5.40. Moreover, the “TSA (∆°C), thermal shift of IRAP” value in test [2] is 2.96 °C. Further, the “Fluorescence + Zn pIC50” value in test [3] turned out to be 5.32. Further, in test [4], the “Fluorescence pIC50” value is listed as 5.32, the IC50 worked out at 4.79 µM and the LipE is reported as 1.29. Also, in test [5], the “Enzyme Active” value is 6, the Targets active is 12, the “Enzyme Active %” value is on record as 7.3% and the “Targets Active %” value is reported as 8.1%.

As for `c1scc2c(N3CCCCCC3)nc(N3CCC3)nc12` [QHL44], in test [1], the “Absorbance pIC50” value was under 4.70. Further, the “TSA (∆°C), thermal shift of IRAP” value in test [2] is 0.44 °C. The “Fluorescence + Zn pIC50” value in test [3] is 5.18. In test [4], the “Fluorescence pIC50” value was found to be 5.19, the IC50 is 6.46 µM and the LipE was 1.50. In addition, in test [5], the “Enzyme Active” value is 4, the Targets active was 6, the “Enzyme Active %” value is listed as 4.3% and the “Targets Active %” value is 4.0%.

For the compound `CCn1c(=O)n(CC(=O)N(C)CCc2ccc(O)c3[nH]c(=O)sc23)c2ccccc21` [QHL45], in test [1], the “Absorbance pIC50” value is listed as 6.09. In addition, in test [2], the “TSA (∆°C), thermal shift of IRAP” value was 0.89 °C. In addition, in test [3], the “Fluorescence + Zn pIC50” value is listed as 5.12. Also, in test [4], the “Fluorescence pIC50” value was 5.11, the IC50 stood at 7.76 µM and the LipE is recorded as 2.74. In test [5], the “Enzyme Active” value is recorded as 5, the Targets active is listed as 11, the “Enzyme Active %” value is reported as 6.0% and the “Targets Active %” value is listed as 7.9%.

Consider `COCCN1CCc2cnc(NCc3ccc(S(N)(=O)=O)cc3)cc21` [QHL47], for which the “Absorbance pIC50” value in test [1] is 5.51. In addition, the “TSA (∆°C), thermal shift of IRAP” value in test [2] is 0.3 °C. In test [3], the “Fluorescence + Zn pIC50” value came out at 4.99. Besides, in test [4], the “Fluorescence pIC50” value amounted to 4.99, the IC50 is 10.2 µM and the LipE is 3.57. Also, in test [5], the “Enzyme Active” value is 4, the Targets active is listed as 6, the “Enzyme Active %” value is listed as 4.7% and the “Targets Active %” value was 4.2%.

Consider `Cc1cc2nc(N)n(Cc3ccccc3)c2cc1C` [QHL49], for which the “Absorbance pIC50” value in test [1] is 5.65. In addition, the “TSA (∆°C), thermal shift of IRAP” value in test [2] is 0.44 °C. For the same compound, the “Fluorescence + Zn pIC50” value in test [3] came to 4.74. In test [4], the “Fluorescence pIC50” value came out at 4.75, the IC50 came to 17.8 µM and the LipE is 0.76. For the same compound, in test [5], the “Enzyme Active” value was 4, the Targets active is given as 9, the “Enzyme Active %” value is 4.9% and the “Targets Active %” value was 6.2%.

One may read the ΔTm as the shift of the melting midpoint relative to a reference.
